{
  "source": "patent US12428666B2",
  "about": "“Compositions and methods related to kethoxal derivatives” (The University of Chicago, priority 2018, dated 2025)",
  "key": {"guanine": {"tested_on": "guanine", "assay": "Reaction of N3-kethoxal with RNA nucleic bases and RNA oligos (HPLC, MALDI-TOF)", "assay_type": "biochemical", "method": "The reaction of N3-kethoxal and RNA was generally performed with the following protocol: 100 pmol RNA oligo and 1 μmol N3-kethoxal was incubated in total 10 μL solution in PBS buffer at 37° C. for 10 mins. […] The purified labelled RNA can be used for further studies such as mass spectrometry, gel electrophoresis and copper-free click reaction with biotin-DBCO.\nMALDI-TOF-MS analysis of N3-kethoxal labelled RNA oligo. […] Meanwhile the buffer exchange occurred from PBS buffer to tris buffer that can be directly used in MALDI-TOF-MS experiment without extra desalt step. One microliter of product solution was mixed with one microliter matrix which include 8:1 volume ratio of 2′4′6′-trihydroxyacetophenone (THAP, 10 mg/mL in 50% CH3CN/H2O):ammonium citrate (50 mg/mL in H2O). Then the mixture was spotted on the MALDI sample plate, dried and analyzed by Bruker Ultraflextreme MALDI-TOF-TOF Mass Spectrometers.\nThe product of N3-kethoxal with for RNA nucleic bases was analyzed using LC-6AD (Shimadzu, Japan) HPLC instrument, which equipped with an Inertsil ODS-SP column ([…], 250×4.6 mm) (GL Science Inc. Japan). The phase A (100 mM TEAA buffer, pH=7.0) and phase B (CH3CN) were used as eluents with a flow rate of 1 mL/min at 35° C. (B conc.: 5-5-30%/0-5-30 min)."}, "[1]": {"tested_on": "single-strand RNA (ssRNA)", "assay": "Selectivity of N3-kethoxal to ssRNA by denaturing gel electrophoresis", "assay_type": "biochemical", "source_text": "The complementary RNA oligoes FS1 (5'-[…] NO:1, Fluorescent RNA oligo) and […]"}, "[2]": {"tested_on": "living mouse embryonic stem cells (mESCs)", "assay": "In vivo labeling of living mES cells, dot blot of isolated biotinylated RNA", "assay_type": "cell-based", "method": "In vivo study: 10 μL N3-kethoxal was added into the cell culture medium in 100 mm cell culture dish with nearly 80% confluent mES cells. After incubation at 37° C. in CO2 incubator for a specific time, the medium was aspirated and the cells were washed three times by PBS. The total RNA was isolated by Trizol™ reagent (Invitrogen, 15596026) or Qiagen RNeasy™ plus mini kit (Qiagen, 74134). mRNA was isolated by Dynabeads™ mRNA DIRECT™ Purification Kit (Invitrogen, 61011). The biotinylation step was same as in vitro study. The biotinylated RNA was purified by RNA clean & concentrator.\nDot blot assay: one microliter RNA (100 ng/uL) sample was spotted onto the Amersham Hybond-N+ membrane (RPN119B, GE Healthcare) and UV crosslinked to the membrane by UVP HL-2000 hybriLinker. The membrane was washed using 1×PBST (0.1% tween-20) and blocked with 5% nonfat dry milk in 1×PBST overnight at 4° C. After four times wash using 1×PBST with ten-minute interval, the streptavidin-horseradish peroxidase (1:15000 dilution, streptavidin-HRP, Life Technologies, S-911) in 1×PBST with 3% BSA was added and incubated at room temperature for 40 mins. Then then membrane was washed using 1×PBST with ten-minute interval again and developed by SuperSignal™ West Pico PLUS Chemiluminescent Substrate (Thermo Scientific, 34577). The membrane was washed by 1×PBST again and stained by methylene blue solution (0.02% methylene blue in 0.3 M sodium Acetate pH 5.2)."}, "N3-kethoxal labelled RNA [3]": {"tested_on": "N3-kethoxal labelled RNA", "assay": "Reversibility of N3-kethoxal labelled RNA with excess GTP (MALDI-TOF, dot blot)", "assay_type": "physicochemical", "conditions": "for time for almost complete removal of N3-kethoxal modification on labeled RNA: excessive GTP (50 mM)", "method": "Removal N3-kethoxal modification from N3-kethoxal labelled RNA. The detailed protocol of N3-kethoxal modification erasing is described below “N3-kethoxal-remove sample preparation” in the keth-seq protocol. Generally, the purified N3-kethoxal modified RNA was incubated with high concentration of GTP (½ volume of the reaction solution, final concentration 50 mM) at 37° C. for 6 hours or at 95° C. for 10 mins. Higher temperature benefits the removal the N3-kethoxal modification."}, "RNA of mouse ES cells": {"tested_on": "RNA of mouse ES cells", "assay": "Keth-seq RT stop distribution", "assay_type": "cell-based", "method": "A library was prepared following icSHAPE protocol with slight changes (Spitale et al., Nature 519:486-90, 2015). The detailed protocol is described below. For in vitro library preparation, RNA was isolated and refolded in RNA folding mix buffer firstly (100 mM HEPES, pH 8.0, 100 mM NaCl, 10 mM MgCl2). The refolded RNA was treated with N3-kethoxal and then utilized for library construction. For in vivo study, N3-kethoxal was added into the cultural medium of mES cell and the RNA was isolated to be utilized for library construction.\nSequencing data processing. As the library structure is similar to icSHAPE technique, a similar strategy was used to preprocess the sequencing reads. Pipeline from icSHAPE protocol was used to conduct the data analysis, all the scripts can be accessed at URL github.com/qczhang/icSHAPE. Firstly, script readCollapse.pl was used to collapse the reads with default parameter. […] Enriched reactivity for each transcript was calculated by comparing kethoxal sample (foreground) versus control sample (background) using script calcEnrich.pl (-w factor5:scaling1 -x 0.25). […]"}, "N3-kethoxal labelled RNA [4]": {"tested_on": "N3-kethoxal labelled RNA", "assay": "Fixation of N3-kethoxal modification in RNA by borate buffer", "assay_type": "physicochemical", "conditions": "final concentration 50 mM", "method": "Fixation of N3-kethoxal modification in RNA. The labile N3-kethoxal modification in RNA can be fixed in the presence of borate buffer. The solution of N3-kethoxal labelled RNA was mixed with 1/10 volume of stock borate buffer (final concentration: 50 mM; stock borate buffer: 500 mM potassium borate, pH 7.0, pH was monitored while adding potassium hydroxide pellets to 500 mM boric acid). The borate buffer fixation was used in various steps of keth-seq protocol, see below."}, "[5]": {"tested_on": "RNA G-quadruplexes (rG4) in HeLa cell", "assay": "Keth-seq of rG4 regions with or without PDS treatment", "assay_type": "cell-based, human", "conditions": "HeLa cell mRNA, 105 regions", "method": "The characterization of RNA G-quadruplexes (rG4) in vivo remains challenging. Because of its high specificity towards guanine, the rG4 structure is a good object of N3-kethoxal to probe. It has been reported that PDS treatment can induce the formation of rG4 inside cells based on immunofluorescence imaging. Keth-seq was tested for the ability to identify rG4 structures induced by PDS inside cells. Keth-seq libraries were prepared using mRNA isolated from HeLa cell with or without PDS treatment. Previously identified rG4 structure regions (n=13,423 from in vitro probing) were analyzed in the Keth-seq data, and detected hundreds of regions with potential secondary structure (FIG. 14d). […] As the regions that form rG4 in vivo are more […], their structures were compared in terms of GINI index. […] Two examples were included where the signal in the defined rG4 regions in the PDS sample is lower than that in the control sample (FIG. 7f)."}, "[6]": {"conditions": "50 mM GTP, neutral buffer, 37° C., MALDI-TOF"}},
  "note": "“Also recorded” adds a separate entry of the source.",
  "data": [
    {"smiles": "CC(OCCN=[N+]=[N-])C(=O)C(O)O", "note": "(centres unmarked) [N3-kethoxal, 3-(2-azidoethoxy)-1,1-dihydroxybutan-2-one]", "values": [
      {"measurement": "labelling of RNA oligo (MALDI-TOF molecular weight of product)", "setting": "guanine; 12 mer RNA oligo with 4 guanines", "result": "all guanines (4 guanines) were modified"},
      {"measurement": "reaction with four RNA nucleic bases (HPLC)", "setting": "guanine; G, A, C, U", "result": "can only react with guanine (G) and was inert with A, C, and U"},
      {"measurement": "labeling activity compared with SHAPE reagent NAI", "setting": "guanine; RNA oligo", "result": "higher labeling activity"},
      {"measurement": "gel shift on double-stranded RNA after incubation", "setting": "[1]; double-stranded RNA", "result": "no such shift was detected"},
      {"measurement": "gel shift on single-stranded RNA after incubation", "setting": "[1]; single-stranded RNA", "result": "a shift was observed"},
      {"measurement": "cell permeability", "setting": "[2]; added directly to culture medium of living cells", "result": "highly cell-permeable; also recorded: could permeate the living cell efficiently even during one-minute incubation; also recorded: excellent cell permeability"},
      {"measurement": "time to label DNA and RNA in living cells", "setting": "[2]; living cells", "result": "≤ 5", "unit": "min"},
      {"measurement": "dot blot signal saturation with incubation time", "setting": "[2]; mESCs, 1, 5, 10, 15, 20 mins", "result": "saturated within five minutes"},
      {"measurement": "N3-kethoxal modification in mRNA after 10 mins incubation", "setting": "N3-kethoxal labelled RNA [3]; 50 mM GTP, 95° C., dot blot", "result": "removed thoroughly"},
      {"measurement": "kethoxal modification after 2 h incubation", "setting": "N3-kethoxal labelled RNA [3]; [6]", "result": "largely removed"},
      {"measurement": "kethoxal modification after 6 h incubation", "setting": "N3-kethoxal labelled RNA [3]; [6]", "result": "almost removed"},
      {"measurement": "time for almost complete removal of N3-kethoxal modification on labeled RNA", "setting": "N3-kethoxal labelled RNA [3]; 37° C.", "result": "≤ 6", "unit": "h"},
      {"measurement": "time for almost complete removal of N3-kethoxal modification on labeled RNA", "setting": "N3-kethoxal labelled RNA [3]; 95° C.", "result": "≤ 0.167", "unit": "h"},
      {"measurement": "guanine share of RT-stopped sites among all reads", "setting": "RNA of mouse ES cells; N3-kethoxal sample", "result": "> 80", "unit": "%"},
      {"measurement": "G-stop sites with treatment time (keth-seq)", "setting": "RNA of mouse ES cells; mES cell, 1 min vs 5 mins treatment", "result": "G-stop sites were increased from 1 min to 5 mins"},
      {"measurement": "stability of N3-kethoxal labeled RNA in borate buffer", "setting": "N3-kethoxal labelled RNA [4]", "result": "stabilized in borate buffer"}
    ]},
    {"smiles": "NCCOc1cc(C(=O)Nc2cc(OCCN)c3ccccc3n2)nc(C(=O)Nc2cc(OCCN)c3ccccc3n2)c1", "note": "[PDS]", "values": [
      {"measurement": "GINI index of known rG4 regions vs control sample", "setting": "[5]", "result": "higher GINI index than the control sample"}
    ]}
  ]
}
